Molecular target: T1, Itk F434G/Δ429 (Itkas) (Homo sapiens, UniProt Q08881, DEL429-429/F435G)
T1 sequence (Q08881 with tags, fused parts or gaps DEL429-429/F435G): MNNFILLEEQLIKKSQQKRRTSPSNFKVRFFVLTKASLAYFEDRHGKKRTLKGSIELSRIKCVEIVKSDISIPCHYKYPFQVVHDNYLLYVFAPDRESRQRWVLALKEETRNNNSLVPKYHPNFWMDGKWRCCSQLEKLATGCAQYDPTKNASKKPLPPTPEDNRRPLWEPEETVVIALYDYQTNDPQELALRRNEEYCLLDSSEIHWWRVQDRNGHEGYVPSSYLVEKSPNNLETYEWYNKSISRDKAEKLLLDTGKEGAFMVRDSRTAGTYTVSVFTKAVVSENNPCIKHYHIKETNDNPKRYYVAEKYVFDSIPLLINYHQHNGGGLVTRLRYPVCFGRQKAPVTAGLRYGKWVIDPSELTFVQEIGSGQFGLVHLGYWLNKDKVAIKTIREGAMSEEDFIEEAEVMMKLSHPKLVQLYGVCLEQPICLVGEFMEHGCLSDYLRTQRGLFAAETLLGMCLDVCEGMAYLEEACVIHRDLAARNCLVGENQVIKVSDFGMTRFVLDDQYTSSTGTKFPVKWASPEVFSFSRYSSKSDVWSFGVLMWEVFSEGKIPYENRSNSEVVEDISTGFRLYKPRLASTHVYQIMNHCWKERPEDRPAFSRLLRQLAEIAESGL
Format: cell-based

IC50: ~50 nM
SMILES: CC(C)(C)n1nc(Cc2cccc3ccccc23)c2c(N)ncnc21 [1-NM-PP1]
